Laboratory results published in patent US20100099561A1, “HETEROBICYCLIC ALKYLTHIO-BRIDGED ISOXAZOLINES” (E.I. DU PONT DE NEMOURS AND COMPANY, priority 2008, published 2010).

Tests used:
Assay type in all cases: in vivo
[1] = system: barnyardgrass (Echinochloa crus-galli); experiment: Test A preemergence, barnyardgrass; settings: 0 to 100 scale (0 no effect, 100 complete control)
Text: (§1) Seeds of barnyardgrass (Echinochloa crus-galli), large crabgrass (Digitaria sanguinalis), giant foxtail (Setaria faberi), morningglory (Ipomoea spp.), pigweed (Amaranthus retroflexus), velvetleaf (Abutilon theophrasti), wheat (Triticum aestivum), and corn (Zea mays) were planted into a blend of loam soil and sand and treated preemergence with a directed soil spray using test chemicals formulated in a non-phytotoxic solvent mixture which included a surfactant. At the same time these species were also treated with postemergence applications of test compounds formulated in the same manner. Plants ranged in height from two to ten cm and were in the one- to two-leaf stage for the postemergence treatment. Treated plants and untreated controls were maintained in a greenhouse for approximately ten days, after which time all treated plants were compared to untreated controls and visually evaluated for injury. Plant response ratings, summarized in Table A, are based on a 0 to 100 scale where 0 is no effect and 100 is complete control. A dash (-) response means no test result.

[2] = system: large crabgrass (Digitaria sanguinalis); experiment: Test A preemergence, large crabgrass; settings: 0 to 100 scale (0 no effect, 100 complete control)
Text: as §1

[3] = system: giant foxtail (Setaria faberi); experiment: Test A preemergence, giant foxtail; settings: 0 to 100 scale (0 no effect, 100 complete control)
Text: as §1

[4] = system: morningglory (Ipomoea spp.); experiment: Test A preemergence, morningglory; settings: 0 to 100 scale (0 no effect, 100 complete control)
Text: as §1

[5] = system: pigweed (Amaranthus retroflexus); experiment: Test A preemergence, pigweed; settings: 0 to 100 scale (0 no effect, 100 complete control)
Text: as §1

[6] = system: velvetleaf (Abutilon theophrasti); experiment: Test A preemergence, velvetleaf; settings: 0 to 100 scale (0 no effect, 100 complete control)
Text: as §1

[7] = system: wheat (Triticum aestivum); experiment: Test A preemergence, wheat; settings: 0 to 100 scale (0 no effect, 100 complete control)
Text: as §1

corn (Zea mays) [8] = experiment: Test A preemergence, corn; settings: 0 to 100 scale (0 no effect, 100 complete control)
Text: as §1

[9] = system: barnyardgrass (Echinochloa crus-galli); experiment: Test A postemergence, barnyardgrass; settings: 0 to 100 scale (0 no effect, 100 complete control)
Text: as §1

[10] = system: large crabgrass (Digitaria sanguinalis); experiment: Test A postemergence, large crabgrass; settings: 0 to 100 scale (0 no effect, 100 complete control)
Text: as §1

[11] = system: giant foxtail (Setaria faberi); experiment: Test A postemergence, giant foxtail; settings: 0 to 100 scale (0 no effect, 100 complete control)
Text: as §1

[12] = system: morningglory (Ipomoea spp.); experiment: Test A postemergence, morningglory; settings: 0 to 100 scale (0 no effect, 100 complete control)
Text: as §1

[13] = system: pigweed (Amaranthus retroflexus); experiment: Test A postemergence, pigweed; settings: 0 to 100 scale (0 no effect, 100 complete control)
Text: as §1

[14] = system: velvetleaf (Abutilon theophrasti); experiment: Test A postemergence, velvetleaf; settings: 0 to 100 scale (0 no effect, 100 complete control)
Text: as §1

[15] = system: wheat (Triticum aestivum); experiment: Test A postemergence, wheat; settings: 0 to 100 scale (0 no effect, 100 complete control)
Text: as §1

corn (Zea mays) [16] = experiment: Test A postemergence, corn; settings: 0 to 100 scale (0 no effect, 100 complete control)
Text: as §1

rice (Oryza sativa) = experiment: Test B flooded paddy test, rice; settings: Flood, scale 0 to 100
Text: (§2) Plant species in the flooded paddy test consisted of rice (Oryza sativa), umbrella sedge (Cyperus difformis), ducksalad (Heteranthera limosa) and barnyardgrass (Echinochloa crus-galli) grown to the 2-leaf stage for testing. At time of treatment, test pots were flooded to 3 cm above the soil surface, treated by application of test compounds directly to the paddy water, and then maintained at that water depth for the duration of the test. Treated plants and controls were maintained in a greenhouse for 13 to 15 days, after which time all species were compared to controls and visually evaluated. Plant response ratings, summarized in Table B, are based on a scale of 0 to 100 where 0 is no effect and 100 is complete control. A dash (-) response means no test result.

[17] = system: umbrella sedge (Cyperus difformis); experiment: Test B flooded paddy test, umbrella sedge; settings: Flood, scale 0 to 100
Text: as §2

[18] = system: ducksalad (Heteranthera limosa); experiment: Test B flooded paddy test, ducksalad; settings: Flood, scale 0 to 100
Text: as §2

[19] = system: barnyardgrass (Echinochloa crus-galli); experiment: Test B flooded paddy test, barnyardgrass; settings: Flood
Text: as §2

In the case of `CC1(C)CC(SCc2c(C(F)(F)F)nc3n(c2=O)CCC3)=NO1` [Compound 9, 3-[[(4,5-dihydro-5,5-dimethyl-3-isoxazolyl)thio]methyl]-7,8-dihydro-2-(trifluoromethyl)pyrrolo[1,2-α]pyrimidin-4(6H)-one], the “Plant response rating, Barnyardgrass” value ([1]; 1000 g ai/ha) was 0, the “Plant response rating, Crabgrass, Large” value ([2]; 1000 g ai/ha) was 0 and the “Plant response rating, Foxtail, Giant” value ([3]; 1000 g ai/ha) was 0. The “Plant response rating, Morningglory” value ([4]; 1000 g ai/ha) was 0, the “Plant response rating, Pigweed” value ([5]; 1000 g ai/ha) was 0 and the “Plant response rating, Velvetleaf” value ([6]; 1000 g ai/ha) was 0. For the same molecule, the “Plant response rating, Wheat” value ([7]; 1000 g ai/ha) was 0, the “Plant response rating, Corn” value (corn (Zea mays) [8]; 1000 g ai/ha) was 0 and the “Plant response rating, Barnyardgrass” value ([9]; 1000 g ai/ha) was 0. The “Plant response rating, Crabgrass, Large” value ([10]; 1000 g ai/ha) was 0, the “Plant response rating, Foxtail, Giant” value ([11]; 1000 g ai/ha) was 0 and the “Plant response rating, Morningglory” value ([12]; 1000 g ai/ha) was 30. The “Plant response rating, Pigweed” value ([13]; 1000 g ai/ha) was 10, the “Plant response rating, Velvetleaf” value ([14]; 1000 g ai/ha) was 10 and the “Plant response rating, Wheat” value ([15]; 1000 g ai/ha) was 0. The “Plant response rating, Corn” value (corn (Zea mays) [16]; 1000 g ai/ha) was 0.

With `Cc1con2c(=O)c(CS(=O)(=O)C3=NOC(C)(C)C3)c(C(F)(F)F)nc12` [Compound 56] the “Plant response rating, Barnyardgrass” value ([1]; 125 g ai/ha) was 0, the “Plant response rating, Barnyardgrass” value ([1]; 500 g ai/ha) was 90 and the “Plant response rating, Crabgrass, Large” value ([2]; 125 g ai/ha) was 0. The “Plant response rating, Crabgrass, Large” value ([2]; 500 g ai/ha) was 90, the “Plant response rating, Foxtail, Giant” value ([3]; 125 g ai/ha) was 20 and the “Plant response rating, Foxtail, Giant” value ([3]; 500 g ai/ha) was 90. For the same molecule, the “Plant response rating, Morningglory” value ([4]; 125 g ai/ha) was 0, the “Plant response rating, Morningglory” value ([4]; 500 g ai/ha) was 0 and the “Plant response rating, Pigweed” value ([5]; 125 g ai/ha) was 0. For the same molecule, the “Plant response rating, Pigweed” value ([5]; 500 g ai/ha) was 0, the “Plant response rating, Velvetleaf” value ([6]; 125 g ai/ha) was 0 and the “Plant response rating, Velvetleaf” value ([6]; 500 g ai/ha) was 0. The “Plant response rating, Wheat” value ([7]; 125 g ai/ha) was 0, the “Plant response rating, Wheat” value ([7]; 500 g ai/ha) was 0 and the “Plant response rating, Corn” value (corn (Zea mays) [8]; 125 g ai/ha) was 0. For the same molecule, the “Plant response rating, Corn” value (corn (Zea mays) [8]; 500 g ai/ha) was 0, the “Plant response rating, Barnyardgrass” value ([9]; 125 g ai/ha) was 70 and the “Plant response rating, Barnyardgrass” value ([9]; 500 g ai/ha) was 80. For the same molecule, the “Plant response rating, Crabgrass, Large” value ([10]; 125 g ai/ha) was 60, the “Plant response rating, Crabgrass, Large” value ([10]; 500 g ai/ha) was 80 and the “Plant response rating, Foxtail, Giant” value ([11]; 125 g ai/ha) was 40. For the same molecule, the “Plant response rating, Foxtail, Giant” value ([11]; 500 g ai/ha) was 80, the “Plant response rating, Morningglory” value ([12]; 125 g ai/ha) was 10 and the “Plant response rating, Morningglory” value ([12]; 500 g ai/ha) was 30. The “Plant response rating, Pigweed” value ([13]; 125 g ai/ha) was 0, the “Plant response rating, Pigweed” value ([13]; 500 g ai/ha) was 10 and the “Plant response rating, Velvetleaf” value ([14]; 125 g ai/ha) was 0. The “Plant response rating, Velvetleaf” value ([14]; 500 g ai/ha) was 0, the “Plant response rating, Wheat” value ([15]; 125 g ai/ha) was 0 and the “Plant response rating, Wheat” value ([15]; 500 g ai/ha) was 0. For the same molecule, the “Plant response rating, Corn” value (corn (Zea mays) [16]; 125 g ai/ha) was 0, the “Plant response rating, Corn” value (corn (Zea mays) [16]; 500 g ai/ha) was 0 and the “Plant response rating, Rice” value (rice (Oryza sativa); 31 g ai/ha) was 0. For the same molecule, the “Plant response rating, Rice” value (rice (Oryza sativa); 62 g ai/ha) was 0, the “Plant response rating, Rice” value (rice (Oryza sativa); 125 g ai/ha) was 0 and the “Plant response rating, Rice” value (rice (Oryza sativa); 250 g ai/ha) was 0. For the same molecule, the “Plant response rating, Sedge, Umbrella” value ([17]; 31 g ai/ha) was 0, the “Plant response rating, Sedge, Umbrella” value ([17]; 62 g ai/ha) was 0 and the “Plant response rating, Sedge, Umbrella” value ([17]; 125 g ai/ha) was 20. For the same molecule, the “Plant response rating, Sedge, Umbrella” value ([17]; 250 g ai/ha) was 30, the “Plant response rating, Ducksalad” value ([18]; 31 g ai/ha) was 0 and the “Plant response rating, Ducksalad” value ([18]; 62 g ai/ha) was 0. For the same molecule, the “Plant response rating, Ducksalad” value ([18]; 125 g ai/ha) was 0, the “Plant response rating, Ducksalad” value ([18]; 250 g ai/ha) was 0 and the “Plant response rating, Barnyardgrass” value ([19]; 31 g ai/ha, scale 0 to 100) was 0. For the same molecule, the “Plant response rating, Barnyardgrass” value ([19]; 62 g ai/ha, scale 0 to 100) was 0, the “Plant response rating, Barnyardgrass” value ([19]; 125 g ai/ha, scale 0 to 100) was 0 and the “Plant response rating, Barnyardgrass” value ([19]; 250 g ai/ha, scale 0 to 100 (0 no effect, 100 complete control)) was 0.
